Tests used:
[1] = biological target: T1, Amine oxidase [flavin-containing] A (Homo sapiens, UniProt P21397); assay: MAOA and MAOB In Vitro Activity Assay
T1 sequence (P21397 whole entry): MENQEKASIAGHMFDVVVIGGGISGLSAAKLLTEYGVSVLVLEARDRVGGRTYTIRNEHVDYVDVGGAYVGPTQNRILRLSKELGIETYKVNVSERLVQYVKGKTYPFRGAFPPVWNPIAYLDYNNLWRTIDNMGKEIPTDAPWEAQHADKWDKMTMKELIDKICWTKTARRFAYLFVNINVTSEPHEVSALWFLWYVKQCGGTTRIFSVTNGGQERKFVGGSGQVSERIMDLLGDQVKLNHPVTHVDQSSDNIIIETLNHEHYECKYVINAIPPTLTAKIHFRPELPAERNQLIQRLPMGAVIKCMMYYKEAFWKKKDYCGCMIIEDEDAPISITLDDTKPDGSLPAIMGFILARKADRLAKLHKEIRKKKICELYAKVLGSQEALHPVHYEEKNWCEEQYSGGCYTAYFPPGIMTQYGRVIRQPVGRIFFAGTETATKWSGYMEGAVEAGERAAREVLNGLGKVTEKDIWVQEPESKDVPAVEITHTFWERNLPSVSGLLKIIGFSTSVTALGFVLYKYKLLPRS

[2] = biological target: T2, Amine oxidase [flavin-containing] B (Homo sapiens, UniProt P27338); assay: MAOA and MAOB In Vitro Activity Assay
T2 sequence (P27338 whole entry): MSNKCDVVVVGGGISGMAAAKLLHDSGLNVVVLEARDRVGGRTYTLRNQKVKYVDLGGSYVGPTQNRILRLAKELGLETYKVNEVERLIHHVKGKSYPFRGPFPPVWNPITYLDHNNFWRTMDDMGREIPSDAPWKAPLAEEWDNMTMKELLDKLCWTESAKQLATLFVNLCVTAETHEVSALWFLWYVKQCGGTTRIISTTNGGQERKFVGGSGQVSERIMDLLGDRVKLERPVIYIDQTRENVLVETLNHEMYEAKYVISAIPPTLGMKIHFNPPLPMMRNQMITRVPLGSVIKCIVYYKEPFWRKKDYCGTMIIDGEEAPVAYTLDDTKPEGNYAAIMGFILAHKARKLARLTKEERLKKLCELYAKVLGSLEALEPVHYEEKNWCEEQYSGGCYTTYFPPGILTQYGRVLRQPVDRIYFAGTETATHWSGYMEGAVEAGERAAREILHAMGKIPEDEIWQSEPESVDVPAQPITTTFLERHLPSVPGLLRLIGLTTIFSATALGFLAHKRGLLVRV

[3] = biological target: Lysine-specific histone demethylase 1A (Homo sapiens, UniProt O60341); assay: LSD1 in vitro activity assay

Structure (SMILES): O=S(=O)(c1ccccc1)N1CCc2cc(C3CC3NCc3c[nH]c4ccccc34)ccc21 (trans isomer) [US11873292, Compound A8]
- IC50 [1]: 81.7 µM
- IC50 [2]: > 100 µM
- IC50 [3]: 0.0851 µM
